Results from patent publication US12478067B2, “Heterocyclic compound and harmful arthropod pest control composition containing same” (SUMITOMO CHEMICAL COMPANY, LIMITED, priority 2019, dated 2025).

Assays:
Format in all cases: in vivo
[1] = test system: common house mosquito (Culex pipiens pallens); experiment: whole plant or invertebrate; details: 24 h, Test Example 8, last instar larvae, after 1 day, 25° C., read-out: mortality of insects
Text: Mortality (%)=(Number of dead insects/Number of tested insects)×100

[2] = test system: Western corn rootworms (Diabrotica virgifera virgifera); experiment: whole plant or invertebrate; details: 120 h, Test Example 9-1, corn seedling immersed 30 seconds, second instar larvae, after 5 days, 25° C., read-out: mortality of insects
Experimental: Each 1 mg of the test compounds is dissolved into 50 μL of a mixed solution of polyoxyethylene sorbitan mono-cocoate and acetone (polyoxyethylene sorbitan mono-cocoate:acetone=5:95 (v/v ratio)).
A young entire seedling of Corns (Zea mays) is immersed into the diluted solution for 30 seconds. […] Mortality (%)=(Number of dead insects/10}×100

[3] = test system: housefly (Musca domestica); experiment: Test method 6: filter paper with sucrose bait, housefly female adults; details: Test Example 6, 0.7 ml on filter paper with sucrose bait, after 24 hours, 25° C., read-out: mortality of insects
Experimental: A filter paper having a diameter of 5.5 cm in diameter is spread on the bottom of the cup, and then 0.7 ml of the diluted solutions are added dropwise to the filter paper and 30 mg of sucrose is uniformly placed on the filter paper as a bait. Ten (10) housefly (Musca domestica) female adults are released into the cup, and the cup is then covered with the lid. […] Mortality (%)=(Number of dead insects/Number of tested insects)×100

[4] = test system: housefly (Musca domestica); experiment: Test method 7: coated container, housefly female adults; details: Test Example 7-1, container coated at 40 mg/m^2 (800 ppm acetone solution), elapsed time 1 hour, 25° C., read-out: mortality of insects
Experimental: An acetone solution which is adjusted to 800 ppm of the test compound is poured into a container having 20 mL contents, and the test compound is coated uniformly on inner face of the container so as to make 40 mg/m^2 thereof, and the container is then allowed to dry.
Into the container, five (5) housefly (Musca domestica) female adults are released into the container, and the container is then covered with the lid. […] Mortality (%)=(Number of dead insects/Number of tested insects)×100

Row | Compound | mortality at 3.5 ppm [1] | mortality at 500 ppm [2] | mortality at 500 ppm [3] | mortality at 40 mg/m2 [4]
1 | CCSc1c(-n2cnc3cc(C(F)(F)F)ccc3c2=O)nc2ccc(Br)cn12 [Present compound 2-1] | ≥ 91% | ≥ 80% | – | –
2 | CCSc1c(-n2cnc3cc(C(F)(F)F)ccc3c2=O)nc2cc(C(F)(F)F)ccn12 [Present compound 2-15] | ≥ 91% | – | ≥ 70% | –
3 | CCSc1c(-n2nnc3ccc(C(F)(F)F)cc3c2=O)nc2ccc(Br)cn12 [Present compound 4-2] | ≥ 91% | ≥ 80% | – | ≥ 80%
